The subject of one test is Raji or OKT3 cells. Briefly: Cell proliferation assay with THP-1-conditioned media. Type of test: cell-based. The note with it: conditioned medium from THP-1 cells treated with P4N, 48 h, MTT. The procedure:
FIGS. 5A-5F depict the expression of Activin A/BAFF induced by P4N treatments. (A) P4N induced Activin A or BAFF expression in human PBMCs as determined by RT-PCR. S1-S5 display different individual blood samples collected from 5 different human donors; N, no treatment; P, P4N-treatment (3 μM). The change in Activin A and BAFF expression (mean of 5 patients) relative to the control (NC) is plotted as a histogram (B) The effect of increasing dosages of P4N for 12 h on mRNA and protein levels of Activin A or BAFF in THP-1 cells was analyzed by RT-PCR and ELISA. (C) The effect of 6 μM P4N on mRNA and protein levels of Activin A or BAFF in THP-1 cells was determined at a different time period. (D) The effect of different inhibitors on Activin A-induced BAFF expression was examined. The expression of BAFF mRNA in inhibitor-treated THP-1 cells was determined by RT-PCR, and (E) BAFF protein secretion was measured by ELISA. (F) The effect of THP-1 conditioned media on the proliferation of Raji cells and OKT3 hybridoma cells were determined. Media were harvested, in which THP-1 cells were pre-treated without inhibitor (2) or with SB431542 (3), A83-01 (4), SIS3 (5), SB203580 (6) or PD98059 (7) and then treated with P4N for 12 h. The results are expressed as % viable cells relative to the control (NC, media from untreated THP-1 cells). All values are the means of triplicate samples±SEM. The significant differences in the results of inhibitor and P4N-treated groups compared with the untreated group are indicated by ***P<0.001.
Cell proliferation assay. Raji or OKT3 cells (1×10^4/well) were seeded and treated with THP-1-conditioned media. After 48 h the number of viable cells was determined by MTT assay. The indices of cell proliferation were calculated as previously described.

A further test has as its system THP-1 cells. As to the kind of experiment: Cytokine and chemokine production of P4N treated THP-1, Bio-Plex and ELISA. Type of test: cell-based, human. The procedure:
THP-1 cells were treated with 3 μM of P4N or the vehicle control (NC) for 24 h. Supernatants were collected and analyzed using the Bio-Plex assay for human cytokines. Shown are the concentrations of 27 human cytokines for each treatment from three independent experiments. The levels of IL-2, IL-4, IL-6, IL-7, IL-9, IL13, IL-15, Eotaxin, G-CSF, IFN-γ and PDGF-bb were undetectable.
FIG. 13 provides graphs showing P4N-induced pro-inflammatory cytokine production in THP-1 cells. THP-1 cells were treated with 3 μM P4N for different lengths of time, Cell supernatants were collected and TNF-α, IL-1β and IL-8 quantitated by ELISA. All results are the mean of three independent experiments (n=6).

The subject of another test is mouse splenocytes. Briefly: Effect of P4N on B cell lineage in mouse splenocytes in vitro. Format: cell-based. How it is done:
The effect of P4N on changes in B cell lineage in vitro. Single cell suspensions of mouse splenocytes were obtained by grinding the spleens from healthy mice. The suspended splenocytes were treated with or without 0.1 or 0.2 μM of P4N for 48 h, and the percentage of naïve B cells, activated B cells, B1 cells or Breg cells were measured after staining with the following fluorochrome conjugates using flow cytometry (BD Biosciences): anti-CD19-FITC, anti-CD-23-APC, anti-CD-38-APC, anti-CD5-PE or anti-CD1d-Alexa 647 (BioLegend, San Diego, Calif.). The cell types were defined as follows: naïve B cells (CD19+CD23+), activated B cells (CD19+CD38+), B1 cells (CD19+CD5+) and Breg cells (CD19+CD5+CD1d+). The indices of different types of B cell proliferation were calculated as follows: (the number of splenocytes×the percentage of each B cell population in treated splenocytes)/(the number of splenocytes×the percentage of each B cell population in untreated splenocytes).

For the next test, the system named is CT26 tumors. Briefly: P4N treatments in vivo, CT-26 tumors in BALB/c mice. Particulars: one intratumoral injection of 2.5 mg/kg or 5 mg/kg. The procedure:
P4N treatments in vivo. BALB/c or BALB/c/nu mice (6 week old) were inoculated subcutaneously with 1×10^6 CT-26 cells in 100 μl PBS. When the average tumor mass reached 50 mm^3, the animals were treated with 2.5 mg/kg or 5 mg/kg of P4N in one intratumoral injection. Subsequently, the tumor volumes were measured using a caliper every 2 days, and the volumes were calculated using the following formula: volume (mm^3)=length×width×height. Before sacrifice, the sera of the mice were collected for experimental use.

Another test addresses T1, LTA4H (Homo sapiens, UniProt P09960).
T1 construct: THP-1 cells (1×10^6 cells/ml/well) in a 24-well culture plate; endogenous in cells; host or cells: THP-1 cells (BCRC, Hsinchu, Taiwan)
T1 sequence (P09960 1-611): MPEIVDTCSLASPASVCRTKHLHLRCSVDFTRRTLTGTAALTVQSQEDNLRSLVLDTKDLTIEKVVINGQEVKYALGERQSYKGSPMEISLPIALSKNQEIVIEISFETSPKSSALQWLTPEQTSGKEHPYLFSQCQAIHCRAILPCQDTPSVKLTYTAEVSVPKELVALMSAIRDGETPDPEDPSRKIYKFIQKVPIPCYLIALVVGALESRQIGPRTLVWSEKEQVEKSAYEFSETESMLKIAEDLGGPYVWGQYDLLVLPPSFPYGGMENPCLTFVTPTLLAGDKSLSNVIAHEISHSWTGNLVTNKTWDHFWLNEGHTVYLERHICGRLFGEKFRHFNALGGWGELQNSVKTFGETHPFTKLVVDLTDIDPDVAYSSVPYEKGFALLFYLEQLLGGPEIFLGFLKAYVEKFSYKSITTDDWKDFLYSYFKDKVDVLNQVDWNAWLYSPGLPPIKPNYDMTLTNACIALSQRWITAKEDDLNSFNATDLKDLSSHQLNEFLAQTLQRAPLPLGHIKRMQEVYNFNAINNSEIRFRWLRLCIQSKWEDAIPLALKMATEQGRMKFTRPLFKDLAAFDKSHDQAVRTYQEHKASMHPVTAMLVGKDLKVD
As to the kind of experiment: LTB4 ELISA in THP-1 culture media. Type of test: cell-based. The note with it: THP-1, 3 μM P4N. The procedure: ELISA assays. THP-1 cells (1×10^6 cells/ml/well) in a 24-well culture plate were pretreated with 10 μM bestatin (a LTA4H inhibitor, Sigma-Aldrich) for 2 h and then treated with 3 μM P4N for various time intervals. The levels of LTB4 in the culture media were determined by the LTB4 (Enzo Life Sciences, Farmingdale, N.Y.) (R&D) ELISA Kits. The amount of TNF-α, IL-8 and Activin A in cultured media were measured in a similar manner.
(In an ELISA, binding on a coated surface is turned into a signal by an enzyme label.)

Setting [1] is: THP-1 monocytes, 3 μM P4N, ELISA.

Where a name gives a salt, the structure may show the parent alone.

In the case of `C[C@H](Cc1ccc(OCCN2CCCCC2)c(OCCN2CCCCC2)c1)[C@@H](C)Cc1ccc(OCCN2CCCCC2)c(OCCN2CCCCC2)c1` [P4N, meso-2,3-dimethyl-1,4-bis(3,4-[2-(piperidino)ethoxyphenyl])butane tetrakishydrochloride salt], the “proliferation of Raji or OKT3 cells” value in the test on Raji or OKT3 cells was “increased the proliferation”. The “levels of IL-2, IL-4, IL-6, IL-7, IL-9, IL13, IL-15, Eotaxin, G-CSF, IFN-γ and PDGF-bb” value in the test on THP-1 cells (THP-1, 3 μM P4N, 24 h) is given as “undetectable”. Besides, in the test on THP-1 cells (THP-1, 3 μM P4N, 24 h, Bio-Plex), the “expression of pro-inflammatory cytokines and chemokines” value is recorded as “increased the expression”. Besides, in the test on THP-1 cells (setting [1]), the “time of stimulated IL-8 release” value was no less than 8 h; the “time to induction of TNF-α and IL-1β expression” value was no more than 4 h. Besides, the “total B cell proliferation in mouse splenocytes” value in the test on mouse splenocytes (48 h) is “increased total B cell proliferation”. For the same molecule, in the test with mouse splenocytes (absence of antigen stimulation), the “number of activated B cells” value was “had no effect”. Besides, the “growth of CT26 tumors” value with CT26 tumors is “significantly inhibited”. For the same molecule, the “production of LTA4H reaction product LTB4” value on LTA4H was “increased the production”.

Values taken from patent US20190111040A1, “IN VIVO AMELIORATION OF ENDOGENOUS ANTI-TUMOR AUTOANTIBODIES TARGETING SURFACE TUMOR ANTIGENS VIA LOW-DOSE P4N” (THE JOHNS HOPKINS UNIVERSITY, priority 2016, published 2019).
